Literature values, collected in patent US5529986A, “Conjugate, its preparation and use and a substrate prepared with the conjugate” (priority 1991, dated 1996).

Settings: heparin used for standard graphs

heparin
Known specific biological activity: 180 I.U./mg
